Results from US20230123334A1, “AMINO LIPID COMPOUND, PREPARATION METHOD THEREFOR, AND APPLICATION THEREOF” (SHENZHEN SHENXIN BIOTECHNOLOGY CO., LTD., priority 2020, published 2023).

The compounds below were run on HEK293 cells (assay: Preliminary screening as DNA vectors, GFP transfection of HEK293 cells). Settings: amino lipid/DOPE liposome with 75 ng plasmid DNA (psin-EGFP-IRES-Puro); number of GFP-expressing cells divided by total nuclei (Hoechst).
Type: cell-based
How it was run: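 First, amino lipid and DOPE were vortexed in sodium acetate buffer (pH 5.6) to form liposomes. Next, these were held with 75 ng EGFP plasmid at room temperature for 30 min. Finally, HEK293 cells were added, cultured at 37° C., Hoechst-stained, and GFP+/total nuclei scored by imaging.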

SMILES	Absolute DNA transfection efficiency in HEK293 cells [%]
CCCCCCCCCCCCCCCCCCNc1nc(NCCCN2CCN(C)CC2)nc(SCCCCCC)n1 [S6N18 D9]	14.1
CCCCCCCCCCCCCCCCCCSc1nc(NCCCCCCCCCCCCC)nc(NCCCN(C)C)n1 [S18N13 D6]	2.6
CCCCCCCCCCCCCCCCNc1nc(NCCCN2CCN(C)CC2)nc(SCCCCCCCCCCCCCC)n1 [S14N16 D9]	0.9
CCCCCCCCCCCCCNc1nc(NCCN2CCCCC2)nc(SCCCCCCC)n1 [S7N13 D4]	6.4
CCCCCCCCSc1nc(NCCCCCCC)nc(NCCN2CCCCC2)n1 [S8N7 D4]	3.8
CCCCCCCCCCCCCCCCNc1nc(NCCN2CCCC2)nc(SCCCCCCCCCC)n1 [S10N16 D3]	8.8
CCCCCCCCCCCCCCCSc1nc(NCCN2CCCCC2)nc(SCCCCCCC)n1 [S7S15 D4]	11.6
CCCCCCCCSc1nc(NCCCCCCC)nc(NCCCN(C)C)n1 [S8N7 D6]	8.5
CCCCCCCCCCCCCNc1nc(NCCN(CC)CC)nc(SCCCCCCC)n1 [S7N13 D7]	3.1
CCCCCCCCCCCNc1nc(NCC2CCN(C)CC2)nc(SCCCCCCCC)n1 [S8N11 D10]	46.3
CCCCCCCCCCCCCCCCSc1nc(NCCCN2CCOCC2)nc(N(CCCCCCCCCCCC)CCCCCCCCCCCC)n1 [S16^2N12 D8]	0.0
CCCCCCCCCCCCCNc1nc(NCCCN(C)C)nc(SCCCCCCCCCCC)n1 [S11N13 D6]	13.6
CCCCCCCCCCCCCCCCSc1nc(NCCCCCCCCC)nc(NCCCN2CCOCC2)n1 [S16N9 D8]	6.7
CCCCCCCCCCCCNc1nc(NCCN2CCN(C)CC2)nc(SCCCCCCCCCCC)n1 [S11N12 D5]	14.1
CCCCCCCCCCCCCCCCCCSc1nc(NCCCCCCCCC)nc(NCCN2CCN(C)CC2)n1 [S18N9 D5]	7.7
CCCCCCCCSc1nc(NCCCN(C)C)nc(SCCCCCCC)n1 [S7S8 D6]	3.6
CCCCCCCCCCCCCNc1nc(NCCN2CCCCC2)nc(SCCCCCCCC)n1 [S8N13 D4]	3.8
CCCCCCCCCCCCCCSc1nc(NCCCCCCCCCCCC)nc(NCCCN2CCOCC2)n1 [S14N12 D8]	2.1
CCCCCCCCSc1nc(NCCCCCC)nc(NCCCN(C)C)n1 [S8N6 D6]	4.3
CCCCCCCCCCCCCCCSc1nc(NCCCCCC)nc(NCCN2CCCCC2)n1 [S15N6 D4]	21.6
CCCCCCCCCSc1nc(NCCCCCC)nc(NCCCN2CCN(C)CC2)n1 [S9N6 D9]	11.0
CCCCCCCCCNc1nc(NCCCN(C)C)nc(SCCCCCCCCC)n1 [S9N9 D6]	60.6
CCCCCCCCCCCCCCCCCCNc1nc(NCCN(CC)CC)nc(SCCCCCCCCCCCCCCC)n1 [S15N18 D7]	0.9
CCCCCCCCCCCCCCCSc1nc(NCCCCCCCCC)nc(NCCN2CCCC2)n1 [S15N9 D3]	30.1
CCCCCCCCCCCNc1nc(NCCN2CCN(C)CC2)nc(SCCCCCCCCCC)n1 [S10N11 D5]	7.2
CCCCCCSc1nc(NCCCN(C)C)nc(SCCCCCC)n1 [S6S6 D6]	12.5
CCCCCCCCCCCCCCCCSc1nc(NCCN(CC)CC)nc(SCCCCCC)n1 [S6S16 D7]	3.7

SMILES	Absolute DNA transfection efficiency in HEK293 cells [%]
CCCCCCCCCCCCCCCSc1nc(NCCCCCCCC)nc(NCCCN2CCOCC2)n1 [S15N8 D8]	7.9
CCCCCCCCCCCCNc1nc(NCCN2CCOCC2)nc(SCCCCCCCCCCC)n1 [S11N12 D2]	3.1
CCCCCCCCCNc1nc(NCCN2CCOCC2)nc(SCCCCCC)n1 [S6N9 D2]	0.2
CCCCCCCCCCCNc1nc(NCCN(CC)CC)nc(SCCCCCC)n1 [S6N11 D7]	2.2
CCCCCCCCCCCCCCCSc1nc(NCCCN(C)C)nc(SCCCCCC)n1 [S6S15 D6]	36.4
CCCCCCCCCCCCCCCCSc1nc(NCCCCCCCCCCCCC)nc(NCCCN2CCOCC2)n1 [S16N13 D8]	0.2
CCCCCCCCCCCNc1nc(NCCN(CC)CC)nc(SCCCCCCC)n1 [S7N11 D7]	9.6
CCCCCCCCCCSc1nc(NCCCCCCC)nc(NCCN2CCN(C)CC2)n1 [S10N7 D5]	7.5
CCCCCCCCCCSc1nc(NCCCCCCCCC)nc(NCCCN(C)C)n1 [S10N9 D6]	21.0
CCCCCCCCSc1nc(NCC2CCN(C)CC2)nc(SCCCCCC)n1 [S6S8 D10]	24.1
CCCCCCCCCCCCNc1nc(NCCN2CCCCC2)nc(SCCCCCCC)n1 [S7N12 D4]	9.7
CCCCCCCCCCCCN(CCCCCCCCCCCC)c1nc(NCCCN2CCN(C)CC2)nc(SCCCCCCC)n1 [S7^2N12 D9]	0.3
CCCCCCCCCCCCCCCCCCSc1nc(NCCCCCCCCCCCC)nc(NCC2CCN(C)CC2)n1 [S18N12 D10]	5.3
CCCCCCCCCCCCCCCSc1nc(NCCCCCCCCCCC)nc(NCC2CCN(C)CC2)n1 [S15N11 D10]	16.6
CCCCCCCCCCCCSc1nc(NCCCN2CCOCC2)nc(SCCCCCC)n1 [S6S12 D8]	7.5
CCCCCCCCCCCCNc1nc(NCCCN(C)C)nc(SCCCCCCCCCC)n1 [S10N12 D6]	19.8
CCCCCCCCCCCCSc1nc(NCCCCCCCCC)nc(NCCN2CCCC2)n1 [S12N9 D3]	7.0
CCCCCCCCCCCCCCSc1nc(NCCN2CCCC2)nc(SCCCCCC)n1 [S6S14 D3]	9.2
CCCCCCCCCNc1nc(NCCN2CCCC2)nc(SCCCCCCCCC)n1 [S9N9 D3]	54.9
CCCCCCCCCCSc1nc(NCCCN2CCN(C)CC2)nc(SCCCCCC)n1 [S6S10 D9]	7.9
CCCCCCCCCCCCCCCCSc1nc(NCCCCCCCCCCC)nc(NCCN(C)C)n1 [S16N11 D1]	17.2
CCCCCCCCNc1nc(NCCN2CCN(C)CC2)nc(SCCCCCCCC)n1 [S8N8 D5]	9.1
CCCCCCCCCCCCCCSc1nc(NCCN2CCOCC2)nc(SCCCCCC)n1 [S6S14 D2]	11.1
CCCCCCCCCCCCCCSc1nc(NCCCCCCCCC)nc(NCCN2CCOCC2)n1 [S14N9 D2]	9.7
CCCCCCCCCCCCNc1nc(NCCN2CCOCC2)nc(SCCCCCCC)n1 [S7N12 D2]	25.6
CCCCCCCCCCCCCCCNc1nc(NCCN2CCCCC2)nc(SCCCCCCCCCCCCCCC)n1 [S15N15 D4]	0.5
CCCCCCCCCCSc1nc(NCCN(C)C)nc(SCCCCCCC)n1 [S7S10 D1]	21.8
